In US20170056504A1, “METHOD OF EXTENDING HALF-LIFE OF CRYSTALINE ANTIBODIES” (priority 2015, published 2017):

What was measured:
[1] = Lactulose with antibiotics cocktail: xPCSK9 mAb serum half-life and large intestine pH; type: in vivo, C57BL6 mice; conditions: with antibiotics cocktail in drinking water
Method: At Day 0, anti-PCSK9-mAb was systemically administrated (30 mg/kg in PBS, i.v.) to the FcRn gene knockout mice or their wild type C57BL/6 mice (8 w old male). Lactulose (30%, water solution) was orally administered using a Popper's feeding needle once in a day throughout the experiment. In some experiment, groups of mice received antibiotics cocktail (Ampicillin, 2 mg/ml; Vancomycin, 1 mg/ml, Metronidazole 2 mg/ml and Neomycin, 2 mg/ml) ad libitum for 7 days. Blood was collected from mice at Day 1 and Day 7 (100 ul/mouse) by retro-orbital bleeding. The serum was separated from the collected blood and saved at −70 C until the measurement of anti-PCSK9-mAb as well as low-density lipoprotein (LDL) cholesterol in the sampled serum. At Day 7, right after the collection of blood, mice were sacrificed, and liver, small intestine (distal portion, 2 cm above cecum) and large intestine (proximal colon, 1 cm below cecum) were collected. […] The amount of LDL/VLDL in the serum was monitored using a HDL and LDL/VLDL Quantitation Kit (Sigma-Aldrich). The amount of anti-PCSK9-mAb in serum, liver, small and large intestines were measured using the ELISA as described above #1. […] In FIG. 11B, content of large intestine sampled from sacrificed mice was suspended in water (0.1 g/1 ml) and the pH was monitored.

[2] = Mouse model of high fat diet induced hyperlipidemia (another study); type: in vivo
[3] = tested on: Substance P and nerve growth factor (NGF); test: Pregabalin-mediated suppression of pain associated factors with lactulose-generated hydrogen; type: in vivo; conditions: hydrogen generated by lactulose, mice
[4] = molecular target: PCSK9 (Mus musculus, UniProt Q80W65); test: LDL level in blood serum of mice that received xPCSK9 mAb and/or lactulose; type: in vivo, C57BL6 mice; parameters: endogenous in cells; host or cells: C57BL6 mice, in vivo (circulating PCSK9 of the animal); conditions: oral lactulose alone without xPCSK9 mAb, Day 7
Method: At Day 0, anti-PCSK9-mAb was systemically administrated (30 mg/kg in PBS, i.v.) to the FcRn gene knockout mice or their wild type C57BL/6 mice (8 w old male). Lactulose (30%, water solution) was orally administered using a Popper's feeding needle once in a day throughout the experiment. In some experiment, groups of mice received antibiotics cocktail (Ampicillin, 2 mg/ml; Vancomycin, 1 mg/ml, Metronidazole 2 mg/ml and Neomycin, 2 mg/ml) ad libitum for 7 days. Blood was collected from mice at Day 1 and Day 7 (100 ul/mouse) by retro-orbital bleeding. The serum was separated from the collected blood and saved at −70 C until the measurement of anti-PCSK9-mAb as well as low-density lipoprotein (LDL) cholesterol in the sampled serum. […] The amount of LDL/VLDL in the serum was monitored using a HDL and LDL/VLDL Quantitation Kit (Sigma-Aldrich). The amount of anti-PCSK9-mAb in serum, liver, small and large intestines were measured using the ELISA as described above #1. […]
From Day-0 to Day 7, Lactulose (50% water solution, 0.2 ml/mouse) or control water (0.2 ml/mouse) was orally administered once/day. […] At Day 0, prior to any administrations, and Day 7, blood serum was collected and the concentration of LDL was monitored using LDL detection kit (Sigma).

Sequence of PCSK9 (Q80W65 156-694): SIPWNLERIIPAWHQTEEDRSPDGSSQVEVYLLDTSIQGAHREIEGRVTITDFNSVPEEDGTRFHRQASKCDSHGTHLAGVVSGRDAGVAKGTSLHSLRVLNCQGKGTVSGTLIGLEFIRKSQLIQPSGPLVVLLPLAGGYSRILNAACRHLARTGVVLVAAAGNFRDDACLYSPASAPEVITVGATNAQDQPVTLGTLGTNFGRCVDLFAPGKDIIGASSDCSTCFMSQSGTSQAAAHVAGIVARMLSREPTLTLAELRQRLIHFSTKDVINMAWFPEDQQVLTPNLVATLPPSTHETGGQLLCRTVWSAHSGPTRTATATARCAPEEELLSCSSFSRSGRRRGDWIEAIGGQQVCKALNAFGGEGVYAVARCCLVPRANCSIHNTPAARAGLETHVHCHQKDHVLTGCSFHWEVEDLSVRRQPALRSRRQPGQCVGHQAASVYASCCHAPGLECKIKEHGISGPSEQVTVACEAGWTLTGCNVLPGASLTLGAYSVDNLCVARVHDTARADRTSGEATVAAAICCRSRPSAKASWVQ

effect of lactulose on extending the serum half-life of xPCSK9 mAb [1]: abolished
SMILES: OC[C@H]1O[C@@H](O[C@@H]2[C@@H](CO)OC(O)(CO)[C@H]2O)[C@H](O)[C@@H](O)[C@H]1O (mixture of isomers) [lactulose]
oxidized LDL (oxLDL) [2]: can suppress | effect on pregabalin-mediated suppression of Substance P and NGF [3]: additive effect | LDL level in blood serum versus base line (Day 0) [4]: did not show any changes from the base line level
